Results: paper PMC7586797, “Phase 1 Study to Evaluate the Effect of the Investigational Anticancer Agent Sapanisertib on the QTc Interval in Patients With Advanced Solid Tumors” (Clinical Pharmacology in Drug Development, 2020)
“And” between values parts separate entries of the source, which are not always exact repeats. Equal values may be shown once. Read-outs that look alike come from different tables or passages of the source.

Key:
[1] = system: CYP enzymes; conditions: in vitro, clinically relevant concentrations; cited from earlier work
[2] = cited from earlier work; for Geometric Mean Cmax: fasted, immediate release capsules, advanced solid tumors, ref data on file 14
[3] = system: breast cancer‐ resistance protein; design: method as in Takeda data on file; conditions: in vitro; ref Takeda data on file; cited from earlier work
[4] = system: human ether‐à‐go‐go channel; assay: In vitro hERG channel inhibition; assay type: biochemical; conditions: free Cmax 0.3 µM at 40 mg
[5] = system: patients with advanced solid tumors; assay: Dedicated QTc study: serial triplicate Holter ECGs, change from time-matched baseline; assay type: in vivo, human; conditions: for LSM QTcF Change (95% UCB) from time-matched baseline / LSM QTcI Change (95% UCB) from time-matched baseline / LSM heart rate change (95% UCB) from time-matched baseline: 40 mg single oral dose
Protocol: The study was conducted at 5 centers across the United States (Montefiore Medical Center, Bronx, New York; Washington University School of Medicine, Saint Louis, Missouri; Stephenson Cancer Center, University of Oklahoma, Oklahoma City, Oklahoma; Mary Crowley Cancer Research Center, Dallas, Texas; and Florida Cancer Specialists/Sarah Cannon Research Institute, Sarasota, Florida) to evaluate the effect of a single oral dose of sapanisertib (40 mg) on the electrocardiographic QT/QTc interval in patients with advanced solid tumors (NCT02197572, clinicaltrials.gov). The primary end point was change from time‐matched baseline in the QTc interval (ΔQTc).
Patients reported to the study sites on day –1 for collection of serial baseline triplicate ECGs prior to sapanisertib administration (described in the ECG Assessments section). […] The patients were equipped with 12 ECG leads to continuously record patient ECG data onto a Holter H12+ ECG recorder. All procedures that were followed on day –1 were consistent with procedures expected for day 1, with the exception of plasma sample collection for PK assessments, since no sapanisertib was administered on day –1. After collection of the 10‐hour time point ECG on day –1, the patients were furloughed from the study site with Holter recorders still attached. These Holter recorders were to remain attached overnight to continue to collect ECG data into day 1.
On cycle 1 day 1, triplicate ECGs and plasma samples for PK were collected from patients ≤15 minutes prior to dosing and at 15 minutes; 30 minutes; and 1‐, 1.5‐, 2‐, 2.5‐, 3‐, 4‐, 6‐, 8‐, and 10‐hour time points after receiving a single oral dose of 40‐mg sapanisertib. The Holter recorders and ECG leads were removed from patients after collection of the 10‐hour time point ECG on day 1, following which patients were furloughed from site. Additional collections of ECGs and plasma samples for PK were conducted at 24 (cycle 1 day 2) and 48 hours (cycle 1 day 3) after dosing. After the first week, that is, cycle 1 day 8, patients had the option to continue to receive treatment with sapanisertib at a dose of 30 mg once weekly in continuous 28‐day cycles until disease progression, unacceptable toxicity, withdrawal of consent, or completion of the 12‐month maximum study duration.
To enable collection of time‐matched ECG and PK data before and after sapanisertib administration, patients reported to the study sites on day –1, during which ECG leads (12 leads) and Holter H12+ ECG recorders were attached. Each planned ECG collection time point was preceded by a 5‐minute supine rest period, after which triplicate ECGs were extracted from the Holter recorders at approximately 2‐ to 5‐minute intervals. Serial triplicate ECGs were collected from 0 to 10 hours, matched to the planned dosing on cycle 1 day 1 predose and postdose ECG and PK time points, to characterize the baseline ECG and QTc interval. All triplicate ECGs were extracted and read centrally (Biotelemetry, Malvern, Pennsylvania). All blood draws for PK were collected after the triplicate ECG collection period.
The baseline characterization of serial triplicate ECG allowed for patient‐specific individual heart rate correction (QTcI) in addition to the Fridericia's ( QTcF=QT/RR3 ) correction that is commonly used in clinical practice. The patient‐specific slopes were calculated using all pairs of QT and RR (time elapsing between two consecutive R waves in an ECG) interval data collected on day –1 and estimated using the linear regression expression: logQT=loga+b∗logRR to calculate the individual slope (b) for each patient. QTcI was then calculated as QTcI=QT/RR^b
ECG analysis was conducted in the primary analysis population, which included patients who had all time points collected on Holter ECG monitoring on day –1 and day 1 of cycle 1, including ECG time points collected on cycle 1 day 1 to cycle 1 day 3 at 24 or 48 hours after dosing that had available baseline comparisons. […]

[6] = after 40 mg dose, 32 evaluable patients

Compound: CC(C)n1nc(-c2ccc3oc(N)nc3c2)c2c(N)ncnc21 [sapanisertib]
- Inhibition or induction of CYP enzymes [1]: did not inhibit or induce CYP enzymes
- Geometric Mean Cmax ([2]; 4 mg once daily): 36.9 ng/mL ^a
- Geometric Mean Cmax ([2]; 30 mg once weekly): 235 ng/mL ^b
- Anticipated free maximum plasma concentration (Cmax) ([2]; 40 mg, cancer patients): 300 nM
- Cmax ([2]; 40 mg, cancer patients, read-out: Total Cmax): 960 nM
- Dose linearity of pharmacokinetics ([2]; 2- to 40-mg dose range): dose‐linear pharmacokinetics
- Accumulation ratio ([2]; once-daily administration): ~1
- Accumulation ([2]; once-weekly administration): does not accumulate
- IC50 [3]: 51.9 µM
- hERG IC50 as multiple of anticipated free Cmax [4]: ~583 times
- LSM QTcF Change (95% UCB) from time-matched baseline ([5]; 0.25 h after dose): –1.7 (2.2) msec
- LSM QTcI Change (95% UCB) from time-matched baseline ([5]; 0.25 h after dose): –2.2 (2.2) msec
- LSM heart rate change (95% UCB) from time-matched baseline ([5]; 0.25 h after dose): –0.2 (2.2) bpm
- LSM QTcF Change (95% UCB) from time-matched baseline ([5]; 0.5 h after dose): –5.3 (–1.5) msec
- LSM QTcI Change (95% UCB) from time-matched baseline ([5]; 0.5 h after dose): –8.3 (–4.0) msec
- LSM heart rate change (95% UCB) from time-matched baseline ([5]; 0.5 h after dose): –4.4 (–1.9) bpm
- LSM QTcF Change (95% UCB) from time-matched baseline ([5]; 1 h after dose): 1.8 msec and 1.8 (5.6) msec
- LSM QTcI Change (95% UCB) from time-matched baseline ([5]; 1 h after dose): –1.8 (2.6) msec
- LSM heart rate change (95% UCB) from time-matched baseline ([5]; 1 h after dose): –3.8 (–1.4) bpm
- LSM QTcF Change (95% UCB) from time-matched baseline ([5]; 1.5 h after dose): 0.1 (4.0) msec
- LSM QTcI Change (95% UCB) from time-matched baseline ([5]; 1.5 h after dose): –2.7 (1.7) msec
- LSM heart rate change (95% UCB) from time-matched baseline ([5]; 1.5 h after dose): –3.3 (–0.9) bpm
- LSM QTcF Change (95% UCB) from time-matched baseline ([5]; 2 h after dose): –3.7 (0.1) msec
- LSM QTcI Change (95% UCB) from time-matched baseline ([5]; 2 h after dose): –5.0 (–0.6) msec
- LSM heart rate change (95% UCB) from time-matched baseline ([5]; 2 h after dose): –0.8 (1.5) bpm
- LSM QTcF Change (95% UCB) from time-matched baseline ([5]; 2.5 h after dose): –7.4 (–3.6) msec
- LSM QTcI Change (95% UCB) from time-matched baseline ([5]; 2.5 h after dose): –7.6 (–3.2) msec
- LSM heart rate change (95% UCB) from time-matched baseline ([5]; 2.5 h after dose): 0.1 (2.5) bpm
- LSM QTcF Change (95% UCB) from time-matched baseline ([5]; 3 h after dose): –7.6 (–3.7) msec
- LSM QTcI Change (95% UCB) from time-matched baseline ([5]; 3 h after dose): –9.1 (–4.6) msec
- LSM heart rate change (95% UCB) from time-matched baseline ([5]; 3 h after dose): –0.1 (2.3) bpm
- LSM QTcF Change (95% UCB) from time-matched baseline ([5]; 4 h after dose): –8.0 (–4.2) msec
- LSM QTcI Change (95% UCB) from time-matched baseline ([5]; 4 h after dose): –7.2 (–2.9) msec
- LSM heart rate change (95% UCB) from time-matched baseline ([5]; 4 h after dose): –0.2 (2.2) bpm
- LSM QTcF Change (95% UCB) from time-matched baseline ([5]; 6 h after dose): –10.1 (–6.4) msec
- LSM QTcI Change (95% UCB) from time-matched baseline ([5]; 6 h after dose): –8.8 (–4.6) msec
- LSM heart rate change (95% UCB) from time-matched baseline ([5]; 6 h after dose): 4.8 (7.1) bpm
- LSM QTcF Change (95% UCB) from time-matched baseline ([5]; 8 h after dose): –4.2 (–0.3) msec
- LSM QTcI Change (95% UCB) from time-matched baseline ([5]; 8 h after dose): –2.2 (2.4) msec
- LSM heart rate change (95% UCB) from time-matched baseline ([5]; 8 h after dose): 6.9 (9.4) bpm
- LSM QTcF Change (95% UCB) from time-matched baseline ([5]; 10 h after dose): –12.5 (–7.1) msec
- LSM QTcI Change (95% UCB) from time-matched baseline ([5]; 10 h after dose): –6.6 (–0.5) msec
- LSM heart rate change (95% UCB) from time-matched baseline ([5]; 10 h after dose): 8.6 bpm and 8.6 (12.1) bpm
- LSM QTcF Change (95% UCB) from time-matched baseline ([5]; 24 h after dose): 0.8 (4.5) msec
- LSM QTcI Change (95% UCB) from time-matched baseline ([5]; 24 h after dose): 7.1 msec and 7.1 (11.4) msec
- LSM heart rate change (95% UCB) from time-matched baseline ([5]; 24 h after dose): 12.4 bpm and 12.4 (14.7) bpm
- LSM QTcF Change (95% UCB) from time-matched baseline ([5]; 48 h after dose): 1.2 msec and 1.2 (5.8) msec
- LSM QTcI Change (95% UCB) from time-matched baseline ([5]; 48 h after dose): 2.8 (8.1) msec
- LSM heart rate change (95% UCB) from time-matched baseline ([5]; 48 h after dose): 5.4 (8.3) bpm
- Clinically relevant (>20 milliseconds) effect on the QT interval ([5]; 40 mg, patients with advanced solid tumors): does not produce clinically relevant (ie, >20 milliseconds) effects on the QT interval
- Patients with PR >200 msec [5, 6]: 1 (3.1) n (%)
- Patients with QRS >110 msec [5, 6]: 0 (0) n (%)
- Patients with QTcF >450 msec [5, 6]: 2 (6.3) n (%)
- Patients with QTcF >480 msec [5, 6]: 0 (0) n (%)
- Patients with QTcF >500 msec [5, 6]: 0 (0) n (%)
- Patients with QTcI >450 msec [5, 6]: 6 (18.8) n (%)
- Patients with QTcI >480 msec [5, 6]: 1 (3.1) n (%)
- Patients with QTcI >500 msec [5, 6]: 0 (0) n (%)
- Patients with ΔPR >25% at any time point [5, 6]: 1 (3.1) n (%)
- Patients with ΔQRS >25% at any time point [5, 6]: 0 (0) n (%)
- Patients with ΔQTcF >30 msec at any time point [5, 6]: 2 (6.3) n (%)
- Patients with ΔQTcF >60 msec at any time point [5, 6]: 0 (0) n (%)
- Patients with ΔQTcI >30 msec at any time point [5, 6]: 5 (15.6) n (%)
- Patients with ΔQTcI >60 msec at any time point [5, 6]: 1 (3.1) n (%)
- Patients with ΔQTcI between 30 and 60 milliseconds ([5]; after 40 mg dose, of the 6 patients with prolonged QTcI, 32 evaluable): 4 patients
